Assay results as given in PubChem BioAssay (NCI).
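These data come from cells grown in 96-well plates and exposed to compound for 48 hours at five concentrations. GI50 = concentration required for 50% inhibition of growth. The concentration for full growth arrest is given as TGI.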

Experiments:
Experiment in all cases: growth of human tumour cells (NCI), 48 h
[1] = system: SK-MEL-28 melanoma
[2] = system: KM20L2 colon
[3] = system: CAKI-1 renal
[4] = system: KM12 colon
[5] = system: UO-31 renal
[6] = system: NCI-H23 lung
[7] = system: BT-549 breast
[8] = system: K-562 leukemia
[9] = system: RPMI-8226 leukemia
[10] = system: HOP-18 NSCLC

Compound | TGI [1] [µM] | TGI [2] [µM] | TGI [3] [µM] | TGI [4] [µM] | TGI [5] [µM] | TGI [6] [µM] | TGI [7] [µM] | TGI [8] [µM] | TGI [9] [µM] | TGI [10] [µM] | GI50 [1] [µM] | GI50 [2] [µM] | GI50 [4] [µM] | GI50 [5] [µM] | GI50 [6] [µM] | GI50 [8] [µM] | GI50 [10] [µM] | GI50 [9] [µM] | GI50 [3] [µM] | GI50 [7] [µM]
C=C(C)[C@@H]1CC[C@]2(C)CC[C@]3(C)[C@H](CC[C@@H]4[C@@]5(C)CC[C@H](O)C(C)(C)[C@@H]5CC[C@]43C)[C@@H]12 | > 100 | > 100 | > 100 | > 100 | > 72.1 | > 100 | 29.3 | > 68.8 | > 100 |  |  |  |  |  |  |  |  |  |  | 
C=CCNC(=O)N(CCCCC(NC(C)=O)C(=O)NCc1ccccc1)Cc1ccccc1 (configuration not stated) | > 100 | > 100 | > 100 | > 100 | > 100 | > 100 |  | > 100 | > 100 | > 100 |  |  |  |  |  |  |  |  |  | 
Cc1nnn[n-]1.N.N.N.N.N.[Cl-].[Co+3] | > 100 | > 100 |  | > 100 | > 100 | > 100 |  | > 100 | > 100 | > 100 | > 100 | > 100 | > 100 | > 100 | > 100 | > 100 | > 100 | > 100 |  | 
O=C(O)C1=C(O)C(C(=O)O)C23CCCCCCCCCCC12C(C(=O)O)C(O)=C3C(=O)O (configuration not stated) | > 100 |  |  | > 100 | > 100 | > 100 |  | > 100 | > 100 | > 100 |  |  |  |  |  |  |  |  |  | 
COC(=O)NC(=O)c1cn(C2OC(CO)C(O)C2O)c(=O)[nH]c1=O (configuration not stated) | > 100 | > 100 | > 100 | > 100 | > 100 | > 100 |  | > 100 | > 100 |  |  |  |  |  |  |  |  |  |  | 
CC1(C)O[C@H]2[C@H](O)C[C@](O)(CO)C[C@H]2O1 | > 100 | > 100 | > 100 | > 100 | > 100 | > 100 |  | > 100 | > 100 |  |  |  |  |  |  |  |  |  |  | 
CCCCCCCCCCCc1nnc(N)o1 | > 100 | > 100 |  | > 100 | 38.3 | > 100 |  | > 100 | > 100 |  |  |  |  |  |  |  |  |  |  | 
N=C1C(c2nc3ccccc3s2)=C(O)CN1c1ccc(F)c(Cl)c1 | > 100 |  | 98.1 | > 100 | 35.8 | > 100 | > 100 | > 100 | > 100 |  | 33.3 |  | 73.9 | 14.7 | 34.8 | 31.1 |  | 18.9 | 14.8 | 30.2
COC12C=C/C(=C(/C(=O)OCc3cncnc3)C(=O)CCCCCCCCC3(OC)C=C/C(=C(/C(=O)OCc4cncnc4)C(=O)CCCCCCCC1)O3)O2 | 1.65 |  | 2.11 | 1.28 | 1.28 | 0.839 | 2.07 | 1.14 | 3.55 |  | 0.325 |  | 0.305 | 0.542 | 0.186 | 0.188 |  | 0.207 | 0.667 | 0.188
C=C(CN1C(=O)CN(C)C1=O)c1ccc(C(=O)Nc2ccccc2N)cc1 | 54.8 |  | 58.7 | > 100 | > 100 | > 100 | > 100 | 74.5 | 14.8 |  | 15.9 |  | 28.6 | 11.8 | 26.8 | 5.9 |  | 2.32 | 18.6 | 61.8
Cc1cc(CC(=O)NCCO)n(CCO)c(=O)c1 | > 100 |  | > 100 | > 100 | > 100 | > 100 |  | > 100 |  | > 100 |  |  |  |  |  |  |  |  |  | 
CNC(=O)Nc1nc2ccc([N+](=O)[O-])cc2[nH]1 | > 100 |  | > 100 | > 100 | > 100 | > 100 | > 100 | > 100 | > 100 |  |  |  |  |  |  |  |  |  |  | 
COc1cc(C(O)CCBr)c(OC)cc1C (configuration not stated) | > 100 |  | > 100 | > 86.7 | > 100 | > 100 | > 84.4 | > 100 | > 100 |  |  |  |  |  |  |  |  |  |  | 
CCOC(=O)c1c(C)nc2c(c1N)CC(=O)N2Cc1ccc(OC)cc1 | > 100 |  | > 100 | > 100 | > 100 | > 100 | > 100 | > 100 | > 100 |  | > 100 |  | > 100 | > 100 | 4.26 | > 100 |  | > 100 | > 100 | 6.3
CCN(CC)c1c(C(=O)/C=C/c2ccc(Cl)cc2)c(-c2ccccc2)nn(C)c1=O | 3.02 | 7.84 | 21.5 |  | 3.12 | 3.1 |  | 7.27 | 5.2 | 4.83 |  |  |  |  |  |  |  |  |  | 
C/C=C(\C)C(=O)NC1=CC[C@@]2(C)C(=CCC3C2CC[C@@]2(C)C3CC[C@@H]2C(C)N(C)C)C1=O (some centres not stated) | 3.24 |  | 11.4 | 13.7 | 3.02 | 25.1 | 15.8 | 2.86 | 9.38 |  | 1.72 |  | 2.85 | 1.44 | 3.95 | 0.451 |  | 1.91 | 2.86 | 3.39
C[C@@]1(C(=O)O)CCC[C@]2(C)C1CC[C@@]13CC(=O)[C@@](CO)(CC[C@]12O)C3 (some centres not stated) | > 100 |  | > 100 | > 100 | > 100 | > 100 | > 100 | > 100 | > 100 |  | > 100 |  | > 100 | > 100 | > 100 | > 100 |  | > 100 | > 100 | > 100
COc1cccc(N2CCN(CC(=O)N3CCN(c4nnc(-c5ccc(Cl)cc5)c(-c5ccc(Cl)cc5)n4)CC3)CC2)c1 | > 100 |  | > 100 | > 100 | > 100 | > 100 | > 100 | > 100 | > 100 |  | > 100 |  | 14.3 | 3.63 | 33.6 | 9.89 |  | 4.63 | 14.8 | 12.9
